# From PubChem BioAssay (NCI)
#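 96-well plates; 48 h exposure; 5 concentrations. Endpoints by linear interpolation between flanking doses. Not reached: highest tested concentration assigned. GI50 is the concentration that inhibits growth by half. TGI: total growth inhibition.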
# Legend:
# Assay in all cases: growth of human tumour cells (NCI), 48 h
# [1] = test system: IGROV1 ovarian
# [2] = test system: SK-MEL-28 melanoma
# [3] = test system: COLO 205 colon
# [4] = test system: MCF7 breast
# [5] = test system: A498 renal
# [6] = test system: NCI-H226 lung
# [7] = test system: TK-10 renal
# [8] = test system: MALME-3M melanoma
# [9] = test system: NCI-H460 lung
# [10] = test system: HS 578T breast
SMILES,TGI [1] [µM],TGI [2] [µM],TGI [3] [µM],TGI [4] [µM],TGI [5] [µM],TGI [6] [µM],TGI [7] [µM],TGI [8] [µM],TGI [9] [µM],GI50 [10] [µM],TGI [10] [µM],GI50 [3] [µM],GI50 [4] [µM],GI50 [5] [µM],GI50 [7] [µM],GI50 [8] [µM],GI50 [9] [µM]
S=c1oc(CCCCCCCCc2nn(CNc3ccc(Cl)cc3)c(=S)o2)nn1CNc1ccc(Cl)cc1,> 100,> 100,22.2,> 100,> 100,> 100,> 100,> 100,> 100,,,,,,,,
CCOC(=O)/C(C1=N[C@H](C(=O)OCC)CS1)=C(\O)c1ccccc1,> 100,> 100,> 100,,,> 100,,> 100,> 100,,,,,,,,
COc1ccc(-c2cc(-c3ccc(OC)c(OC)c3)nc(SCCCC(=O)NO)n2)cc1,,,5.98,10.2,3.06,,> 100,4.88,5.24,1.91,33,1.75,2.75,1.39,0.722,0.896,0.842
CC(=O)NCC1OC2COC(c3ccccc3)OC2C2N=C(c3ccccc3)OC12 (stereo unspecified),,> 100,> 100,> 100,> 100,> 100,> 100,> 100,> 100,,> 100,,,,,,
Nc1cc2ncnc(Nc3cccc(Br)c3)c2cn1,,> 100,> 100,,36.1,71,8.18,> 100,> 100,,> 100,,,,,,
Cc1c(Cl)c(=O)oc2cc(OCC(O)COC(C)C)ccc12 (stereo unspecified),> 100,> 100,47.8,65.3,,,> 100,35.8,> 100,,> 100,,,,,,
O=c1oc2ccccc2c(O)c1C(c1ccc(O)cc1)c1c(O)c2ccccc2oc1=O,> 100,> 100,> 100,,> 100,> 100,> 100,> 100,> 100,,> 100,,,,,,
COc1ccc(Nc2nc(NNC(=O)Cc3ccccc3)nc(NNC(=O)c3ccncc3)n2)cc1,> 10,> 10,> 10,> 10,> 10,,> 10,> 10,> 10,,,,,,,,
CCOC(=O)NC(OCc1ccccc1)(C(=O)OC)C(F)(F)F (stereo unspecified),> 100,> 100,> 100,> 100,,,> 100,,> 100,,> 100,,,,,,
O=C1c2ccccc2C2(c3ccc(Cl)cc3)N[C@@H]3CCCC[C@@H]3N12 (stereo partly specified),> 100,> 100,> 100,> 100,> 100,> 100,> 100,,> 100,,> 100,,,,,,
COc1ccc2c3c([nH]c2c1)-c1nc2ccccc2c(=O)n1CC3,> 25,> 25,> 25,> 25,,,> 25,,> 25,1.59,10.6,,,,,,1.38
